The values below come from patent US20250186469A1, “THERAPEUTIC AGENT FOR OVARIAN CLEAR CELL CARCINOMA” (JSR CORPORATION, priority 2022, published 2025).

Experiment [1] relates to ovarian clear cell carcinoma organoid CCC19-042. Description: Drug sensitivity test for immunodeficient mouse transplanted with ovarian clear cell carcinoma organoid. The experiment is classed as in vivo. Particulars: 1 mg/kg intraperitoneally twice a week from the 7th day after transplantation, versus DMSO vehicle; FIG. 15C. The protocol: The ovarian clear cell carcinoma organoid CCC19-042 was cultured until it reached a diameter of approximately 50 to 100 μm. The organoid was recovered in a 50 mL tube after removing the culture medium from the plate and then suspending the organoid in a Cell Recovery Solution (Corning, 354235). The solution including the recovered organoid was placed on ice and the Matrigel was depolymerized. After the completion of the reaction, the organoid was washed with a culture medium and re-suspended in the Matrigel so that 1×10^6 cells were present in 100 μL.
The organoid corresponding to 1×10^6 cells was transplanted subcutaneously (left shoulder) in an immunodeficient mouse, and the tumor forming ability was evaluated on the 7th day after the transplantation. In addition, a thinly sliced slide was created from an FFPE section of the tumor and subjected to HE staining and HNF1β immunostaining.
With regard to the immunodeficient mouse transplanted with the ovarian clear cell carcinoma organoid shown in Experimental Example 9, administration, measurement of a weekly body weight, and calculation of a tumor volume were performed from the 7th day after transplantation. […]
The tumor volume was calculated by the following expression.

Experiment [2] relates to ovarian clear cell carcinoma organoid. Description: Sensitivity test of ovarian clear cell carcinoma organoid (cell viability by ATP activity). The experiment is classed as cell-based, human. Particulars: exposed for 3 days at 0.0001 to 10 μM, FIGS. 13, 14, 17. The procedure: Based on the above-described results of HTDS, the test focused on the proteasome inhibitors that were found with multiple hits among the 9 hit compounds. A proteasome inhibitor (bortezomib, carfilzomib, and ixazomib), a microtubule inhibitor (paclitaxel), and a platinum formulation (cisplatin and carboplatin) were prepared at each of final concentrations of 0.0001 μM, 0.001 µM, 0.01 μM, 0.1 μM, 1 μM, and 10 μM, the ovarian clear cell carcinoma organoid was exposed to each of the concentrations for 3 days, and the cell viability was measured by measuring the ATP activity.
FIGS. 13 and 14 show graphic views of the results of the measured cell viabilities.
For the CDK 1, 2, 5, and 9 inhibitor (dinaciclib) that was hit in the 9 compounds that were hit more in HTDS, the cell viability was measured by measuring an ATP activity in the same manner as in Experimental Example 8.

In experiment [3] the test system is ovarian cancer organoid. Description: Sensitivity test of ovarian cancer organoid to PARP inhibitor (cell viability by ATP activity). Particulars: exposed for 3 days at 0.0001 to 10 μM; each cell line; FIG. 7. The class given is cell-based, human. The protocol: A sensitivity test of the ovarian cancer organoid to olaparib was performed. Olaparib which is a kind of PARP inhibitor was prepared at a final concentration of each of 0.0001 μM, 0.001 μM, 0.01 μM, 0.1 μM, 1 μM, and 10 μM, and the ovarian cancer organoid was exposed to olaparib for 3 days at each concentration, and the cell viability was measured by measuring the ATP activity.
The vertical axis indicates the cell viability as a ratio to the control, and the horizontal axis indicates the final concentration (μM) of olaparib.

For the molecule `CC(C)C[C@H](NC(=O)[C@H](Cc1ccccc1)NC(=O)c1cnccn1)B(O)O` [bortezomib], in experiment [1], the tumor volume entry was “decrease in tumor volume”. In experiment [2], the cell viability entry is listed as “significant decrease in cell viability depending on the concentration”. As for `CC(C)C[C@H](NC(=O)[C@H](CCc1ccccc1)NC(=O)CN1CCOCC1)C(=O)N[C@@H](Cc1ccccc1)C(=O)N[C@@H](CC(C)C)C(=O)[C@@]1(C)CO1` [carfilzomib], the cell viability entry in experiment [2] was “significant decrease in cell viability depending on the concentration”. The same measure, in the same setting: the result for `CC(C)C[C@H](NC(=O)CNC(=O)c1cc(Cl)ccc1Cl)B(O)O` [ixazomib] reads “significant decrease in cell viability depending on the concentration”. `O=C(c1cc(Cc2n[nH]c(=O)c3ccccc23)ccc1F)N1CCN(C(=O)C2CC2)CC1` [olaparib]: the “cell viability (ratio to the control)” value in experiment [3] is reported as “reduced depending on the concentration”. Turning to `CC(=O)O[C@H]1C(=O)[C@@]2(C)[C@H]([C@H](OC(=O)c3ccccc3)[C@]3(O)C[C@H](OC(=O)[C@H](O)[C@@H](NC(=O)c4ccccc4)c4ccccc4)C(C)=C1C3(C)C)[C@]1(OC(C)=O)CO[C@@H]1C[C@@H]2O` [paclitaxel], the cell viability entry in experiment [2] is “significant decrease in cell viability depending on the concentration”.
